One data set relates to ARPE-19 cells. The procedure: Cell Viability Assay. […] 1× AlamarBlue solution prepared in OptiMEM was used to replace the media supernatant and the plate's fluorescence was determined at 555 nm excitation/585 nm emission with a SpectraMax M (Molecular Devices, CA, USA), after 1 h. […] The exact timing of appearance of far-red (DRAQ7=plasma membrane leakage) and blue (NUC405=caspase 3 activation) fluorescence signals was critical to differentiate apoptosis and necrosis from secondary events, such as membrane damage and generalized proteolytic activation during the late phase of apoptosis and necrosis, respectively.
Real time monitoring of necrotic and apoptotic cell-death. Cell-death assay to study Lipofuscin's dark toxicity was performed. 90% confluent ARPE-19 or hfRPE were incubated overnight in serum free media supplemented with indicated LB concentration. Viability was assessed at 24 hrs by AlamarBlue®, or microscopy with NUC405/DRAQ7. Real time monitoring of necrotic (red) and apoptotic (blue) cell-death was performed by automated fluorescence microscopy. The exact timing of appearance of far-red (DRAQ7=plasma membrane leakage) and blue (NUC405=caspase 3 activation) fluorescence signals was critical to differentiate apoptosis and necrosis from secondary events, such as membrane damage and generalized proteolytic activation during the late phase of apoptosis and necrosis, respectively.
Chemical inhibitors. Chemical inhibitors used in this study are described in FIG. 12.

The test system of the next data set is pMLKL. As to the kind of experiment: Fluorescence microscopy of pMLKL plasma membrane translocation in ARPE-19 monolayers. The data set is classed as cell-based, Human. To be noted: ARPE-19 with A2E or ATRD. The text has this:
Chronic accumulation of polymeric pMLKL could account for progressive damage in pigmented retinas as they amass LF.

The next data set deals with phospho-MLKL. Description: Intravitreal treatment of DKO mice, phospho-MLKL immunostaining of retina. The data set is classed as in vivo, ABCA4−/− RDH8−/− double knock-out mice (DKO). The procedure:
(§1) Animals. Pigmented ABCA4^−/− RDH8^−/− double knock-out mice (DKO), free of rd8 mutation, were purchased from Jackson laboratories and every 10 generations were in house backcrossed to the C57BL6J control strain, to prevent genetic drifts. Genotyping was performed at Transnetyx (Memphis, TN). Only mice with ABCA4, RDH8, RPE65-Leu450 but no crb1 mutations (retinal degeneration slow) were maintained in the colony. Controls C57BL/6J (Rpe65-Leu450, crb1negative) were also Jackson's lab. All mice were housed at Weill Cornell Medicine's animal facility under a 12 h light (˜10 lux)/12 h dark cycle environment or under complete darkness. Experimental manipulations in the dark were done under dim red light transmitted through a Kodak No. 1 safelight filter (transmittance >560 nm). No retinal degeneration or necroptosis markers were appreciably detected in 20 months or older C57BL6/N (Rpe65-Met450, crb1 positive) obtained from the NAI/NIH. All animal procedures and experiments were approved by the Animal Care and Use Committee of Weill Cornell Medical College in agreement with the guidelines established by the NIH Office of Laboratory Animal Welfare and the Association of Research for Vision and Ophthalmology (ARVO) statement for the use of animals in ophthalmic research.
RPE and Neural retina flat mounts. Mouse eyes were enucleated and placed in 4% PFA in PBS for 1 h at room temperature. After fixing, a 23G needle was used to make a hole at the limbus area and iris scissors used to cut around the circumference of the limbus, remove the cornea, iris and lens, separate the neuronal retina and sclera by micro-forceps. Neuronal retina and RPE layer were dissected out and incubated with blocking buffer (1% BSA and 0.3% Triton-X-100 in PBS) for at least 20 min. Primary antibodies were added to the blocking buffer and kept at 4° C. overnight. Retina and RPE layer were washed and incubated with secondary antibodies for at least 30 min at room temperature, then washed with PBS three times. Under the dissection microscope, retina or RPE layer was cut into a four-leaf clover shape and mount on the slides in mount medium (EMS glycerol mounting medium with DAPI and DABCO, cat. No. 17989-61). Slides were stored at 4° C. until imaging.
Cryosections and Immunofluorescence staining. Mouse eyes were fixed with 4% PFA and penetrated with 30% sucrose overnight at 4° C., then cryopreserved in Tissue-Tek OCT compound (Sakura Finetek, Torrance, CA, USA) and cut into 15 μm sections. Sections were blocked with 1% BSA and 0.1% Triton-X-100 PBS, and then immunofluorescence staining was performed using standard methods and the appropriate dilutions of primary antibodies against p- p-MLKL (cell signaling), XBP1s (Biogend), Iba-1 (Abcam), CD11b (Millipore), Lamp2 (hybridoma bank), CellRox and DRAQ7 (Invitrogen), Rhodopsin (Abcam), phalloidin-CF660 (Biotium, cat.no. 0052), Hoechst33324, caspase3 (clone9664, Cell signaling). Subsequently, slides were incubated with Alexa-647, Alexa-594 secondary antibodies, and counterstained with Hoechst33324. Negative controls were included in each staining, and slides were mounted with anti-fade mount medium. Slides were stored at 4° C. before analysis on SD microscope using Zen software. For paraffin sections, mouse eyes were embedded in paraffin and cut into 5-μm sections. […]
(§2) Pharmacological treatment of mice. […] The exact volume of Mock reagent or Kira6 was determined by 10 μl Hamilton syringe. […]

Data set [1] relates to activated microglia/macrophages. As to the kind of experiment: Intravitreal treatment of DKO mice, subretinal microglia/macrophage infiltration. Type of data set: in vivo, ABCA4−/− RDH8−/− double knock-out mice (DKO). The procedure: as §1, with “research. […]” for “research.”
as §2

Where two headings read alike, the source gives them in different places.

On to `CC(C)(C)c1nc(-c2ccc(NC(=O)Nc3cccc(C(F)(F)F)c3)c3ccccc23)c2c(N)nccn12` [KIRA6], for which, in the data set on ARPE-19 cells, the “protection against light-independent LF (A2E/ATRD) cytotoxicity, RPE survival” value is given as “sufficient to protect against necroptosis by LF”. Also, the “effect on LF-induced pMLKL plasma membrane localization” value in the data set on pMLKL was “inhibition of pMLKL plasma membrane translocation”. The “necroptosis, intracellular and plasma membrane pMLKL labelling in RPE flat mounts” value in the data set with phospho-MLKL (26 month old DKO mice, intraocular, a week later) is on record as “abrogated necroptosis”. Besides, the “pMLKL/XBP1s double positive cells (RPE and microglia)” value in the data set with phospho-MLKL (demelanized paraffin cross-sections, 20 month old DKOs, control 33%) was found to be 4%. Besides, the “Iba-1+ cells attached to the apical side of RPE” value in data set [1] (RPE-flat mounts, center to periphery) is given as “No Iba-1+ cells were detected”.
As to `N=C1S/C(=C\c2cn[nH]c2-c2ccc(F)cc2)C(=O)N1c1nccs1` [Nec7, Necrostatin 7], the “protection against light-independent LF (A2E/ATRD) cytotoxicity, RPE survival” value is on record as “highly protective” in the data set on ARPE-19 cells (ARPE-19, inhibitor pretreatment, A2E/ATRD 24 h, no light, AlamarBlue) and “protects against necroptosis by lipofuscin” in the data set on ARPE-19 cells (ARPE-19, inhibitor pretreatment, A2E/ATRD 24 h, no light, AlamarBlue, listed as Nec-7). Besides, in the data set with pMLKL, the “effect on LF-induced pMLKL plasma membrane localization” value is listed as “effectively reverted the pMLKL membrane localization pattern”. Moreover, the “membrane and cytosolic pMLKL labeling in RPE flat mounts” value in the data set on phospho-MLKL (12 month old DKOs, single intraocular injection, analyzed one week later) is on record as “reduced to undetectable levels”. The “membrane and cytosolic phospho-MLKL staining in RPE flat mounts” value with phospho-MLKL (26-month-old DKO mice, 2 μl intraocular, a week later) is “reduced membrane and cytosolic phospho-MLKL staining to undetectable levels”. For the same compound, in the data set with phospho-MLKL (DKO mice, intraocular, 1 week earlier), the “phospho-MLKL (necroptosis) labeling in neuroretina-flat mounts” value is reported as “significantly reduced”. Moreover, the “infiltration of CD11b cells in the subretinal space” value in data set [1] (RPE-flat mounts from 25- to 27-month-old DKO mice) is given as “reduced the infiltration of CD11b cells”.

Source of the values: patent US20240082221A1, “COMPOSITIONS AND METHODS FOR THE IDENTIFICATION OF COMPOUNDS THAT PROTECT AGAINST LIPOFUSCIN CYTOTOXICITY” (priority 2021, published 2024).
